Measured values reported in patent US9757375B2, “Compounds that inhibit human DNA ligases and methods of treating cancer” (University of Maryland, Baltimore, priority 2007, dated 2017).

Experiments:
HeLa cell extract = test: Cell extract assay of short patch base excision repair (incised AP site); type: biochemical, human; details: 100 μmol/L (also 25 μM in the source), FIG. 4B
Experimental: Extracts were prepared from human cervical cancer HeLa cells as described previously (27, 31). For base excision repair (BER) assays, the extraction buffer contained 100 mmol/L of KCl, whereas for nonhomologous end-joining (NHEJ) assays, extraction buffer contained 400 mmol/L of KCl. Where indicated, DNA ligases were immunodepleted from the extracts as described (32) using protein A or G Sepharose beads (GE Healthcare) and anti-Lig1, anti-LigIII (GeneTex), or anti-LigIV (ABCAM) antibodies. Depletion was confirmed by immunoblotting.
A labeled 5′-flap substrate (0.1 pmol; (31)) was incubated with 20 μg of extract in the absence or presence of ligase inhibitors (100 μmol/L) at 25° C. for 5 min in ligation buffer (final volume, 50 μL). For short patch BER, a linear duplex containing a single uracil residue was preincised by treatment with uracil DNA glycosylase and APE1 (both from NEB) to generate a strand break with 3′ hydroxyl and 5′ deoxyribose phosphate termini. Reactions (50 μL) containing 0.3 pmol of the incised DNA substrate, 10 μCi of [α^32P]dTTP, and 20 μg of extract either in the absence or presence of ligase inhibitors (100 μmol/L) were incubated at 25° C. for 2 min in ligation buffer. After separation by denaturing polyacrylamide gel electrophoresis, labeled oligonucleotides were detected in the dried gel by phosphorImager analysis (Molecular Dynamics).
A natural AP site within a linear DNA molecule (FIG. 4B) is repaired primarily by short patch base excision repair that is completed by DNA ligase 111 (15). FIG. 4B, the linear DNA substrate with an incised AP site (0.3 pmol) was incubated with a cell extract (20 μg) and [a32P]dTTP in the absence (lane 1, Mock) or presence of 100 μmol/L of L189 (lane 2), L67 (lane 3), or L82 (lane 4). hLigI (lane 5, I-dp) and hLigIIIα (lane 6, III-dp) were immunodepleted from the cell extracts prior to incubation with the DNA substrate. […] After separation by denaturing gel electrophoresis, labeled fragments corresponding to a single nucleotide insertion and fully repaired product were detected by phosphorimaging (16). […]

MCF7 cells = test: Colony forming (survival) assay; type: cell-based, human
Experimental: For survival assays, cells were plated in 6 well plates and grown either in the absence or presence of ligase inhibitors. Where indicated, either MMS (0-50 μM) was added to the medium or the cells were irradiated in a Cs-137 irradiator (0-2.5 Gy). After two weeks, colonies were stained with crystal violet (Sigma) and then counted.
To confirm that the DNA ligase inhibitors directly kill cells and potentiate cell killing by DNA damaging agents, we performed colony forming assays.
Different concentrations of Compound 184 were added to asynchronous subconfluent populations of HCT116, MCF7 and MCF10A cells. Colonies were counted after two weeks. (FIG. 6A).
Different concentrations of Compound 67 were added to asynchronous subconfluent populations of HCT116, MCF7 and MCF10A cells. After 1 hour, cultures were irradiated with 2 gray of ionizing radiation. Different concentrations of Compound 67 were added to asynchronous subconfluent populations of HCT116 and MCF10A cells in the absence or presence of MMS (50 μM). Colonies were counted after two weeks. (FIG. 6D).

[1] = system: MCF10A, MCF7, HCT116, and HeLa cells; test: Cell viability after 6 days on cell panel (FIG. 8); type: cell-based, human; details: FIG. 8, 6 days viability; MCF7 colonies, cell cycle
Experimental: FIG. 8. […] A, MCF10A (▪), MCF7 (♦), HCT116 (▴), and HeLa (upsidedown triangle) cells were plated in the absence or presence of L82 (left), L67 (middle), and L189 (right). After 6 days, cell viability was measured and is expressed as a percentage of the value obtained with untreated cells. B, MCF7 cells were plated out in the absence or presence of L82 (top) and L67 (bottom) at the indicated concentrations. After 2 weeks, colonies were stained with crystal violet. C, after serum starvation for 4 days, MCF 7 cells were returned to serum-containing media either without (▪) or with 50 μmol/L of L82 (●). The cell cycle distribution at various time intervals was determined by fluorescence-activated cell sorting. D, asynchronous populations of MCF cells were either untreated (top) or treated with L82 at 10 μmol/L (middle) and 50 μmol/L (bottom). After 3 days, tubulin and DNA were visualized by fluorescence microscopy (bars, […]).

[2] = system: Human DNA ligases I, III and IV and T4 DNA ligase; test: Step 2 of the ligation reaction: DNA-AMP (DNA-adenylate) formation on non-ligatable nick; type: biochemical
Experimental: To analyze step 2 of the ligation reaction, labeled ligase-AMP intermediates (10 pmol (22)) were incubated overnight at 25° C. with an unlabeled nonligatable version (dideoxy residue at the 3′-terminus of the nick) of the DNA oligonucleotide substrate (10 pmol), either in the presence or absence of the ligase inhibitors (100 μmol/L).
Since the final two steps of the ligation reaction involve interactions with DNA, we examined the effects of the ligase inhibitors on the second (FIG. 3B) (The labeled ligase-adenylate form of human DNA ligases I, III and IV and T4 DNA ligase were incubated with a linear DNA substrate containing a single non-ligatable nick in the absence or presence of compounds 67, 82 and 189 (100 μM). After separation by denaturing gel electrophoresis, the labeled DNA-AMP complex was detected by phosphorimaging (26)) and third steps (FIG. 3C) of the ligation reaction using established assays (25,26) (Non-adenylated human DNA ligases I, III and IV and T4 DNA ligase were incubated with labeled DNA-AMP in the absence or presence of compounds 67, 82 and 189 (100 μM). After separation by denaturing gel electrophoresis, labeled ligated DNA was detected by phosphorimaging (25)).

`Cc1c(Br)cc(NCC(=O)N/N=C\c2cc([N+](=O)[O-])ccc2O)cc1Br` [Compound 67] was tested, and the “repair of the natural AP site (short patch base excision repair)” value (“repair of the natural AP site” for short) (HeLa cell extract) was “reduce repair of the natural AP site”, the “potentiation of killing by ionizing radiation” value (MCF7 cells; MCF7, 2 gray, FIG. 6D) was “potentiates” and the “potentiation of killing by MMS” value (MCF7 cells; MCF7, MMS, FIG. 6D) was “potentiates”.
`O=c1[nH]ncc(N/N=C\c2ccc(O)c([N+](=O)[O-])c2)c1Cl` [Compound 82] was tested, and the “effect on cell viability / growth, in words” value [1] was “cytostatic effect” and the “repair of the natural AP site” value (HeLa cell extract) was “has no effect”.
With `Nc1nc(S)nc(O)c1/N=C/c1ccccc1` [Compound 189] the “repair of the natural AP site” value (HeLa cell extract) was “reduce repair of the natural AP site”, the “inhibition of step 2 of the ligation reaction” value ([2]; 100 μM, FIG. 3B) was “inhibits step 2” and the “Mechanism: ligation step inhibited (2nd step)” value ([2]; Table 5A) was 2nd.
With `CS(=O)(=O)NNC(=O)C(=O)NNc1ccccc1` [Compound 184] the “cell killing (colony formation)” value (MCF7 cells; MCF7, compound alone, compared with MCF10A, FIG. 6A) was “more effective at killing”.
